Calls of active or inactive are those of the source.

In ChEMBL document CHEMBL1201862, “PubChem BioAssay data set” (2004) one finds EC50 and IC50 data, which are given here for 13 compounds.

Test [1] deals with Peroxisome proliferator-activated receptor gamma/Nuclear receptor coactivator 2 (Homo sapiens, UniProt P37231). The format is functional.
Test [2] addresses Peroxisome proliferator-activated receptor gamma/Nuclear receptor coactivator 3 (Homo sapiens, UniProt P37231). It is filed as functional.
Test [3] has as its target Peroxisome proliferator-activated receptor gamma/Nuclear receptor coactivator 1 (Homo sapiens, UniProt P37231). The format is functional.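 Note: agonist potency as compounds enhance coactivator SRC-1 recruitment to PPARgamma.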
Test [4] addresses T1, NADPH oxidase 1 (Homo sapiens, UniProt Q9Y5S8).
T1 sequence (Q9Y5S8 whole entry): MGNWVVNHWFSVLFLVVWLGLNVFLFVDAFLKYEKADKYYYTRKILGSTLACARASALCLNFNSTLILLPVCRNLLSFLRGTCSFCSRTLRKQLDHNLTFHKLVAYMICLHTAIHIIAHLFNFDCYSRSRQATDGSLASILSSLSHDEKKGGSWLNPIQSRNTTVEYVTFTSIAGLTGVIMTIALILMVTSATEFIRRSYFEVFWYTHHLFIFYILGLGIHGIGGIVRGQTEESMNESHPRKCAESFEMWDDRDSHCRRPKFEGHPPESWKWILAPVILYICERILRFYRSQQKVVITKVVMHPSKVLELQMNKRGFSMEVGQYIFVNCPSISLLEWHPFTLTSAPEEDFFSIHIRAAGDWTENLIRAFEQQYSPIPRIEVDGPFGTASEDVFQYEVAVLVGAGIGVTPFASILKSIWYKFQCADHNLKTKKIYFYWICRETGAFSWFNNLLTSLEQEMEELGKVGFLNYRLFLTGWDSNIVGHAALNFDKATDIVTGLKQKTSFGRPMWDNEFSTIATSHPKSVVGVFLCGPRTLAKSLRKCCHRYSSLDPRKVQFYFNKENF
It is filed as functional, cell-based.

Test [5] has as its target Beta-2 adrenergic receptor (Homo sapiens, UniProt P07550). Kind of test: beta2AR agonists driving receptor internalization, dose response, cell-based, FAP fluorogen, flow cytometry, cherry pick 1 (AID 588763). The format is functional. On the technique in general: In flow cytometry, cells or beads pass a laser one at a time.
For test [6], the target named is T2, Bcl-2-like protein 10 (Homo sapiens, UniProt Q9HD36).
T2 sequence (Q9HD36 whole entry): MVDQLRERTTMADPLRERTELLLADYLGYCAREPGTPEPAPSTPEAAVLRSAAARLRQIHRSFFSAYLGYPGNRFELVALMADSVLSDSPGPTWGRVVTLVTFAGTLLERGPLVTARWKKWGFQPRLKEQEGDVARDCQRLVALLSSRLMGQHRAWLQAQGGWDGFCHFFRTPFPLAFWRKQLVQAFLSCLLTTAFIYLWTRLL
Kind of test: Biochemical TR3 FP assay of Bcl-B inhibitor potency, EC50 (AID 1243). It is filed as functional.

Test [7] addresses T3, Estrogen receptor beta (Homo sapiens, UniProt Q92731). Kind of test: ERβ–SRC-3 coactivator interaction inhibitors, confirmation, orthogonal assay, biochemical, ELISA, streptavidin-HRP readout (AID 1060). (An ELISA detects its analyte on a solid surface through an enzyme-linked reagent.)
Test [8] deals with T3, Estrogen receptor beta.
Test [9] can be described thus: Luminescence Cell-Based Dose Confirmation HTS to Identify Inhibitors of Polyadenylation. It is filed as functional.
For test [10], the target named is T4, Corticotropin-releasing factor receptor 2/Corticotropin-releasing factor-binding protein (Homo sapiens, UniProt P24387+Q13324).
T4 sequence (Q13324 whole entry): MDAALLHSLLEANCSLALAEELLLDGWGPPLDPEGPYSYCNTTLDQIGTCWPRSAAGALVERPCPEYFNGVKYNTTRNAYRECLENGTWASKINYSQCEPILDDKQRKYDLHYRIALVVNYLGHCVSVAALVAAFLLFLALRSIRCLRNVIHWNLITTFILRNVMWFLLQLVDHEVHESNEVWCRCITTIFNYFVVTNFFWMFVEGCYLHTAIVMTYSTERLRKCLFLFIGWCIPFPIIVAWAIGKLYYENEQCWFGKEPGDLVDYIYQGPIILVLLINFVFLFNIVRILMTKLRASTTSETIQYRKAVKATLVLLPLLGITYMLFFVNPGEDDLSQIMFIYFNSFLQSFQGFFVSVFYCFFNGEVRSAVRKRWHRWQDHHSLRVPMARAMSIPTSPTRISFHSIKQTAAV
T4 sequence (P24387 whole entry): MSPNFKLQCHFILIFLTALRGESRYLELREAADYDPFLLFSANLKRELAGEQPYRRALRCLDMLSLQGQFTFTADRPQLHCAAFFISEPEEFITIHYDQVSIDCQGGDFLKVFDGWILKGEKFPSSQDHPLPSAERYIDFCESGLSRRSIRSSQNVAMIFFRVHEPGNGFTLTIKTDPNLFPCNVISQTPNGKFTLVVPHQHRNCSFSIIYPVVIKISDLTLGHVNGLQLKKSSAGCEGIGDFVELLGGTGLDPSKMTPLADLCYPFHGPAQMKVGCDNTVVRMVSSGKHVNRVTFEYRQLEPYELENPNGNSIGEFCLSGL
Kind of test: activators of CRF receptor 2 with binding protein – uHTS hits, confirmation (AID 602473). The format is functional. The settings on record: read-out: EC50_Mean.

For test [11], the target named is Procathepsin L (Homo sapiens, UniProt P07711). Kind of test: cathepsin L inhibitors, dose response, counter-screen for M1/M17 aminopeptidase inhibitor project, biochemical, QFRET, 1536-well (AID 2214). (In general: A counterscreen serves to expose hits that act by an unwanted route or on another target.)
Test [12] deals with T5, Leucine aminopeptidase (Plasmodium falciparum 3D7, UniProt Q8IL11).
T5 sequence (Q8IL11 whole entry): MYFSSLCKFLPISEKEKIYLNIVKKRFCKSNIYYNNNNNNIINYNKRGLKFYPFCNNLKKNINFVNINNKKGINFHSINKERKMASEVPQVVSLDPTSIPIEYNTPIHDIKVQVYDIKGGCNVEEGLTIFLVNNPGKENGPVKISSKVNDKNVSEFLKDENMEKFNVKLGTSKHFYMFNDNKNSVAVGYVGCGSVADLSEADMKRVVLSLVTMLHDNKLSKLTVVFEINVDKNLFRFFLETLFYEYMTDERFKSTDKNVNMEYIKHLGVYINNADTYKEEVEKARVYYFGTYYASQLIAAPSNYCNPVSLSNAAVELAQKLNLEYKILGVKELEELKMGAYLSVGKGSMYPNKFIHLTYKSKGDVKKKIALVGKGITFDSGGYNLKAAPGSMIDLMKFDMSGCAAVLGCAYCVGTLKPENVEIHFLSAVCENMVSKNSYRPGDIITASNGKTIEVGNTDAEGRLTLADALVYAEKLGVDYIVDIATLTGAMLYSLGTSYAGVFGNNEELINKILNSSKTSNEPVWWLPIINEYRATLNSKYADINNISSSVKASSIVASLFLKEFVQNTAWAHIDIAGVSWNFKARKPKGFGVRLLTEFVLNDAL
Kind of test: P. falciparum M17LAP inhibitors, primary screen, biochemical, fluorogenic H-Leu-NHMec substrate, 1536-well (AID 1619). It is filed as functional.

The target of test [13] is T6, Aspartyl aminopeptidase (Plasmodium falciparum 3D7, UniProt Q8I2J3).
T6 sequence (Q8I2J3 whole entry): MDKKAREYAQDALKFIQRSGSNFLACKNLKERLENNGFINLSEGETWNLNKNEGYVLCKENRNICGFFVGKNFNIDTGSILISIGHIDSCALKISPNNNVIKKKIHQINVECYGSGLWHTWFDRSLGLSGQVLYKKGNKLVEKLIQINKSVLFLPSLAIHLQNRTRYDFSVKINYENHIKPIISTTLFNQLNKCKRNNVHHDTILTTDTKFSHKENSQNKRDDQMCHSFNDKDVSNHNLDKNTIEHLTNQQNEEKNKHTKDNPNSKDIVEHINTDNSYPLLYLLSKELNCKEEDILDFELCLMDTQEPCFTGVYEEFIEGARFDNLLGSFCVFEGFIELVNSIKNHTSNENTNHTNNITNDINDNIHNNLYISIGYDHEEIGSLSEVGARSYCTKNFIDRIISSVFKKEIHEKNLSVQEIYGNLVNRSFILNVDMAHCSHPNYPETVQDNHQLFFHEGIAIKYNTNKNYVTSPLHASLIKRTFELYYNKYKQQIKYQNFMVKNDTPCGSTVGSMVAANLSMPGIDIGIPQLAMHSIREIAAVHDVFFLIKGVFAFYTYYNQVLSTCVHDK
As to the kind of experiment: Counterscreen for inhibitors of M1 and M17 aminopeptidases: QFRET-based biochemical high throughput dose response assay for inhibitors of the Plasmodium falciparum M18 Aspartyl Aminopeptidase (PFM18AAP). [Related PubChem assays: 1619 (Screening assay (M17LAP inhibitors).), 1445 (Screening assay (M1AAP inhibitors).)].

Test [14] concerns the target Mucolipin-3 (Homo sapiens, UniProt Q8TDD5). Kind of test: Dose response cell-based high-throughput screening assay for agonists of the transient receptor potential channel ML3 (TRPML3). [Related pubchem assays: 1526, 1424, 1448 ]. It is filed as functional.
Test [15] deals with Ion channel NompC (Danio rerio, UniProt Q7T1G6). As to the kind of experiment: Fluorescence counterscreen assay for TRPML3 agonists: dose response cell-based high-throughput screening assay to identify agonists of the transient receptor potential channel N1 (TRPN1). [Related pubchem assays: 1526, 1424, 1448 ]. The format is functional.
Test [16] concerns the target T7, Estrogen receptor (Homo sapiens, UniProt P03372).
T7 sequence (P03372 whole entry): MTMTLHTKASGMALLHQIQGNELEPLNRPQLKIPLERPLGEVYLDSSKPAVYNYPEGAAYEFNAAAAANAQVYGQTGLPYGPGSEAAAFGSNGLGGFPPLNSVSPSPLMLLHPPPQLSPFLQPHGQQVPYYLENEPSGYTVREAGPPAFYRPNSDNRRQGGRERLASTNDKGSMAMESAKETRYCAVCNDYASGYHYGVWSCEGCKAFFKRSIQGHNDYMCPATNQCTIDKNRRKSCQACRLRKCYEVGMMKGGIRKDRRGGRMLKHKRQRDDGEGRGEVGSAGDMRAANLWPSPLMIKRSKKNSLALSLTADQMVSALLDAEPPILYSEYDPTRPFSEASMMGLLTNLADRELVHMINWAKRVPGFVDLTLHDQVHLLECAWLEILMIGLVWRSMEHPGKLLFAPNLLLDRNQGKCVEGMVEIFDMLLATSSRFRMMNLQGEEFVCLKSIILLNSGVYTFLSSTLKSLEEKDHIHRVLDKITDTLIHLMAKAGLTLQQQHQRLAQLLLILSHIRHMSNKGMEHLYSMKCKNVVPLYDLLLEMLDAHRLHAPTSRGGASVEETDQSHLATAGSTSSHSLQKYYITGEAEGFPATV

Test [17] concerns the target Melanocortin receptor 4 (Homo sapiens, UniProt P32245). It is filed as functional, cell-based.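 Note: Cell-based assay with luminescence read-out, confirmatory dose-response testing for agonist activity of biased ligands at MC4R; human U2OS cells with tagged receptor and beta-arrestin; potency of agonists that increase receptor coupling to beta-arrestin.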

T3 sequence (Q92731 whole entry): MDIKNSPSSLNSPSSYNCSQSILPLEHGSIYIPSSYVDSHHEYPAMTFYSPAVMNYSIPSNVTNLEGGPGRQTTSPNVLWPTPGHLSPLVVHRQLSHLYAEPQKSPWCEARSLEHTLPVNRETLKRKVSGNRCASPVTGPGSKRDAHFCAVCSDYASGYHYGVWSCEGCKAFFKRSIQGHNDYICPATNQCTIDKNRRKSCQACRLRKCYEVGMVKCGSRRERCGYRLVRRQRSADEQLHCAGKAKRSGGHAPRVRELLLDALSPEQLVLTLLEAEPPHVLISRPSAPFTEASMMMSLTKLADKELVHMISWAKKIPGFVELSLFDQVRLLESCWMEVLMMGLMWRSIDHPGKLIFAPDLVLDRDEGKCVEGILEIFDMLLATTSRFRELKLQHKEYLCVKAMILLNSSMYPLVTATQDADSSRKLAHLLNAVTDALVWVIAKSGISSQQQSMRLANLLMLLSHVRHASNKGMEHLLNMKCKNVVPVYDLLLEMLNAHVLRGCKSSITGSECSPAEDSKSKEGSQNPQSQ
Chain of Mucolipin-3 (Q8TDD5 whole entry): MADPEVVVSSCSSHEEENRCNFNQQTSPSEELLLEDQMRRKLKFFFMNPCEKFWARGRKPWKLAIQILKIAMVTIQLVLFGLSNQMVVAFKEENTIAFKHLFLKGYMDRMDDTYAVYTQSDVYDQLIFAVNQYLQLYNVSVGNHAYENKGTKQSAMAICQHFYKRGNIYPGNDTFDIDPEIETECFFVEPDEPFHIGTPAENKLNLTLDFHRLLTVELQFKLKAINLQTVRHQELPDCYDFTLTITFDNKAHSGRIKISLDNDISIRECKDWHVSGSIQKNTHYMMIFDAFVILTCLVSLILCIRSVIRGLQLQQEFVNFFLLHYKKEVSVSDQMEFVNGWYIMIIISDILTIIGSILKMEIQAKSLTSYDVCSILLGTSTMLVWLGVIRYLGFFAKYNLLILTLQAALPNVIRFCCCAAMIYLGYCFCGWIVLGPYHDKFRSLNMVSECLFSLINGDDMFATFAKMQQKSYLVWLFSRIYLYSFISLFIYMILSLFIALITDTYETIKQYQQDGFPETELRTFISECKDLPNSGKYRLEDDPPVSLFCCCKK
Chain of Ion channel NompC (Q7T1G6 whole entry): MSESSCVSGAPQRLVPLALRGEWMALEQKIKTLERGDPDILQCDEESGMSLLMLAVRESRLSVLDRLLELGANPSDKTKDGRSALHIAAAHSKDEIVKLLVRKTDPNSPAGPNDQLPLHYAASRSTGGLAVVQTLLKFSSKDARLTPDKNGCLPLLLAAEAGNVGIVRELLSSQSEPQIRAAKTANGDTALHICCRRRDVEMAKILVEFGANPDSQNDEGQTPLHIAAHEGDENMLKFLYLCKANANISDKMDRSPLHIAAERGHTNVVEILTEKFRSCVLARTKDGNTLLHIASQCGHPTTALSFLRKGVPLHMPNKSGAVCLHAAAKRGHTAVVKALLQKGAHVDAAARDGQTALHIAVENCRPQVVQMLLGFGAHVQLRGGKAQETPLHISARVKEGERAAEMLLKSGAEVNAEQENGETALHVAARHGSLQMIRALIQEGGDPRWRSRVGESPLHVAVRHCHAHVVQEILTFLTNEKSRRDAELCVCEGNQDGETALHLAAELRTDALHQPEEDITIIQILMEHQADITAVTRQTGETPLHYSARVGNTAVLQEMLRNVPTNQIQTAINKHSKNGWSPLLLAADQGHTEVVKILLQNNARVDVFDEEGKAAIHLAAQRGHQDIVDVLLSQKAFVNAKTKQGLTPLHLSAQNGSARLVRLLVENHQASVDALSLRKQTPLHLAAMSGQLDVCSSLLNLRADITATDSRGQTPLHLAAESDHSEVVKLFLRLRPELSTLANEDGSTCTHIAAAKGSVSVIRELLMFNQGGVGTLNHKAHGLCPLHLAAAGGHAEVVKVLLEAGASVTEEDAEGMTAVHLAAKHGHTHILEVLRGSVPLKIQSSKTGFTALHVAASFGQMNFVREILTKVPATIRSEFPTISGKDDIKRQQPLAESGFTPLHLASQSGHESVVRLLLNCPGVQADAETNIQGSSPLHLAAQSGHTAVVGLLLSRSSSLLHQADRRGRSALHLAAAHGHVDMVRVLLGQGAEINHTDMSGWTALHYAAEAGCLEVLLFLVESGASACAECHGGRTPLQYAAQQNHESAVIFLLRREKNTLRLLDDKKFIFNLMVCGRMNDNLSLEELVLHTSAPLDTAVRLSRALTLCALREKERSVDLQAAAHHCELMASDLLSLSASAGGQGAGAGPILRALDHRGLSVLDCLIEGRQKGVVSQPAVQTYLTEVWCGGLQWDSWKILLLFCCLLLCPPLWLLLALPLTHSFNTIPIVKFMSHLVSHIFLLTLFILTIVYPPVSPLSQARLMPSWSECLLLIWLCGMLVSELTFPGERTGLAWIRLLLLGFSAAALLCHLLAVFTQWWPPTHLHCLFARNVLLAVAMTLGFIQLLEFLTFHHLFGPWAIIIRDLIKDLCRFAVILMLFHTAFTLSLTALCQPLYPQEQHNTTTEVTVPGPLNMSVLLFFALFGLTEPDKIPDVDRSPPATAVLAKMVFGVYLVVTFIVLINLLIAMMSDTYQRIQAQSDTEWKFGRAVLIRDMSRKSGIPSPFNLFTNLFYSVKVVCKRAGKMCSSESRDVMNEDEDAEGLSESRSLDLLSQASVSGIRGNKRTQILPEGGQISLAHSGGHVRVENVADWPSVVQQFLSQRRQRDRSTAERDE
Chain of Peroxisome proliferator-activated receptor gamma/Nuclear receptor coactivator 3 (P37231 whole entry): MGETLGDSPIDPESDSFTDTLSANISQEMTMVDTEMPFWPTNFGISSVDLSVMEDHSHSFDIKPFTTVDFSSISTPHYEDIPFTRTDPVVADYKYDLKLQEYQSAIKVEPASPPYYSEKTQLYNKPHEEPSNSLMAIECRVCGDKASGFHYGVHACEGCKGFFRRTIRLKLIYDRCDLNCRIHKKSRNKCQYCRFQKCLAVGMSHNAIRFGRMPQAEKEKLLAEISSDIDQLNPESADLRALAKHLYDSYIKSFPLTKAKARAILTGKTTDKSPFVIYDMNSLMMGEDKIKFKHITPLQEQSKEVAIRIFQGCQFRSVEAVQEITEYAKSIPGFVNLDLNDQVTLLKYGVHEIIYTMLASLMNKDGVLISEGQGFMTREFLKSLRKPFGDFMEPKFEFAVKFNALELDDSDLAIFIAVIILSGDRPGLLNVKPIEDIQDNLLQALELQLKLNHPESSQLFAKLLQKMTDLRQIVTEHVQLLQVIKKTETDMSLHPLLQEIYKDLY
Chain of Peroxisome proliferator-activated receptor gamma/Nuclear receptor coactivator 3 (Q9Y6Q9 whole entry, further chain): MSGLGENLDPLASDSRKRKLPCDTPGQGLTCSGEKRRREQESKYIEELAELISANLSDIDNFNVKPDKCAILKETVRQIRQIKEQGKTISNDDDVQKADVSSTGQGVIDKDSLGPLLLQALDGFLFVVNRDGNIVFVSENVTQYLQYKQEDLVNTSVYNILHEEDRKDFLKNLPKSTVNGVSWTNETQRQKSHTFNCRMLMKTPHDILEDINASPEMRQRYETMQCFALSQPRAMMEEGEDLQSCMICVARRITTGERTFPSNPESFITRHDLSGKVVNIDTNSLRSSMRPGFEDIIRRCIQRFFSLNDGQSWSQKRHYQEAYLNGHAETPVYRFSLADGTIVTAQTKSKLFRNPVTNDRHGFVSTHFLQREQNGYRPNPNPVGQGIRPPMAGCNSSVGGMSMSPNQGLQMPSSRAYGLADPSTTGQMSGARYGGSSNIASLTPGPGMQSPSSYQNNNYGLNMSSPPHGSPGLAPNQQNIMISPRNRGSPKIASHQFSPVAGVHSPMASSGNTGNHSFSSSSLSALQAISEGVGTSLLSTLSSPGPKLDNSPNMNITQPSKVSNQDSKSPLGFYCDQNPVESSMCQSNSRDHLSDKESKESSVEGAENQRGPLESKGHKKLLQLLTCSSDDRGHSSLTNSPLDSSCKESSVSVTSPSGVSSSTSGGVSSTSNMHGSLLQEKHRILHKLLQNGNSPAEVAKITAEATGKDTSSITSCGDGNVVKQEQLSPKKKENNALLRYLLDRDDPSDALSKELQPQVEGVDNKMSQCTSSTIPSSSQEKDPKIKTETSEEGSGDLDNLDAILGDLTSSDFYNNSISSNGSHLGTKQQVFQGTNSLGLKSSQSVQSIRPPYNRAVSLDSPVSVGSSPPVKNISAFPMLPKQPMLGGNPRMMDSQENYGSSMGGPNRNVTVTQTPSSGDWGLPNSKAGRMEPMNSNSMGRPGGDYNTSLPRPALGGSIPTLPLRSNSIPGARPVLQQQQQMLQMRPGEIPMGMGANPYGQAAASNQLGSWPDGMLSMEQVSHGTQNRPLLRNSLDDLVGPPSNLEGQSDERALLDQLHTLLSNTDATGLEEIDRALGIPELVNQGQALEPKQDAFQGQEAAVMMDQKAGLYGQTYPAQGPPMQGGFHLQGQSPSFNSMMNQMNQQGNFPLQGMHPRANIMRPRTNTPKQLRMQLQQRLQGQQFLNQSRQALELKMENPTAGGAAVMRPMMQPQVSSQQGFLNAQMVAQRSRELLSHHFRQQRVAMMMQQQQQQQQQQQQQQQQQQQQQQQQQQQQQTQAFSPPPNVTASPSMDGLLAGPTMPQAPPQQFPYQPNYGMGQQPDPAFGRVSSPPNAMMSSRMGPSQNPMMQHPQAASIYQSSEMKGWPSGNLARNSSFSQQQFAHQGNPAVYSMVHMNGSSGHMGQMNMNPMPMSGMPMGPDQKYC
Chain of Melanocortin receptor 4 (P32245 whole entry): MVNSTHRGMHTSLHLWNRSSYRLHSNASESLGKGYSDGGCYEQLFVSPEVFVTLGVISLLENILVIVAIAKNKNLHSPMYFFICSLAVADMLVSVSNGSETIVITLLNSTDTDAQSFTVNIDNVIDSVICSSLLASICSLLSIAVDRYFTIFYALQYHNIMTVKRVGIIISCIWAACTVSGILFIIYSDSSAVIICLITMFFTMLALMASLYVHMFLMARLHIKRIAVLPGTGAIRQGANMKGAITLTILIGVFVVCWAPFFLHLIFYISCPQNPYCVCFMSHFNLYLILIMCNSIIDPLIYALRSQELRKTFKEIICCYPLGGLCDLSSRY

As to `COc1cc(C(=S)N2CCOCC2)cc(OC)c1OC(=O)c1cc([N+](=O)[O-])c(C)c([N+](=O)[O-])c1`, the EC50 in [1], in test [2] and in test [3] was > 79.4 µM (not active) in each case.

Take `O=C(Cc1ccccc1)NNC(=O)Cc1ccccc1`: in test [4], the IC50 (usually the concentration at which inhibition is half-maximal) was > 17 µM (not active).

As to `CCCCCCN1C(=O)NC(=O)/C(=C\Nc2c(C)n(C)n(-c3ccccc3)c2=O)C1=O`, the EC50 in [5] is 1.31 µM (active); in test [1], > 79.4 µM (not active); in test [2] it was > 79.4 µM (not active); in [3] it was > 79.4 µM (not active).

In the case of `Cc1cc(C)nc(/N=C(\N)Nc2cccc(N)c2)n1`, in test [6], the EC50 was 5.45 µM (active).

As for `c1ccc(-c2nnc3sc(Cc4cccs4)nn23)cc1`, the IC50 in test [7] was > 109 µM (not active); in test [8] it was 21.6 µM (active).

Take `O=C1C=CC2=C3Oc4c(ccc5cc(O)ccc45)C(c4ccccc4C(=O)O)C3C=CC2=C1` (configuration not stated): the EC50 in test [6] was 1.68 µM (active).

In the case of `C/C(=C\C=C(C#N)C#N)c1cc(C#N)c(N)o1`, the EC50 in test [9] was 11.1 µM (active); in test [10] it was 5.13 µM (active).

Consider `CCc1cc2ccc(C)cc2nc1SCC(=O)Nc1cc(OC)c(OC)cc1C(=O)O`, for which the IC50 in test [11] was > 59.6 µM (not active); in [12], < 1 µM (active); in [13], > 73.5 µM (not active).

Take `Cc1ccc(S(=O)(=O)N2C(=S)SCC2(C)C)cc1`: the values for the EC50 in test [14] and in [15] were 7.22 µM (active) and > 29.9 µM (not active), respectively.

As for `CCOc1ccccc1N1CCN(S(=O)(=O)c2ccc(Cl)s2)CC1`, the EC50 in [14] was 8.16 µM (active); in [15] it was > 29.9 µM (not active).

In the case of `CCN1C(=O)/C(=C2/Sc3ccc(OC)cc3N2C)S/C1=N\c1cccc(O)c1`, the values for the 50% inhibitory concentration (IC50) in test [7], in test [8] and in test [16] were 0.0604 µM (not active), > 50 µM (not active) and > 50 µM (not active), respectively. The EC50 in [17] is > 89.2 µM (inactive).

Turning to `CCCCCCCCCCCC(=O)N/N=C/c1ccco1`, the EC50 in test [9] is given as > 120 µM (not active).

`CN(C)CCCN1c2ccccc2Sc2ccc(Cl)cc21` [CHLORPROMAZINE]: the IC50 in [4] is > 17 µM (not active).
